Patent US20200157638A1, “BIOMARKERS AND PATIENT SELECTION STRATEGIES” (SIERRA ONCOLOGY, INC., priority 2017, published 2020)

Tests used:
OVCAR-3 xenograft [1] = assay: OVCAR-3 xenograft model, SRA737 versus Olaparib (Example 3); format: in vivo, mouse; details: 100 mg/kg
OVCAR-5 = assay: In vitro growth inhibition of cancer cell lines by SRA737; format: cell-based; details: OVCAR-5 ovarian cancer cell line; KRAS activation, CCNE1 overexpression; FIG. 5
Source text: (§1) In cancer cells, replication stress induced by oncogenes (e.g., MYC and RAS oncogenes) and/or loss of function in tumor suppressors (e.g., TP53) results in persistent DNA damage and genomic instability, a trigger of the DDR network. […] SK-BR-3 is a breast cancer cell line harboring a deleterious mutation is TP53 and amplification in c-MYC. HT-29 is a colorectal cancer (CRC) cell line harboring a deleterious mutation in the tumor suppressor gene, adenomatous polyposis coli (APC), an amplification in c-MYC, and an activation mutation in the oncogenes, BRAF and PIK3CA. DU-145 is metastatic prostate cancer cell line harboring a deleterious mutation in the tumor suppressors TP53 and RB1, an amplification in KRAS, and alterations of the DNA damage repair genes TP53B1, MLH1 and MSH3. A673 is a rhabdomyosarcoma cell line harboring genetic alterations in the tumor suppressor genes, CDKN2A and CDKN2B and genetic alterations in the DNA damage repair genes BRCA1, Rad50 and Rad51D. OVCAR-3 is an ovarian cancer cell line harboring a deleterious mutations in the tumor suppressors TP53 and RB1 and an amplification of CCNE1. […] The results of these in vitro experiments confirm that cancer cells with genetic alterations in tumor suppressor genes, oncogenes, and/or DNA damage repair genes are sensitive to inhibition of Chk1.

OVCAR-3 = assay: as above; format: cell-based; details: OVCAR-3 ovarian cancer cell line; TP53 and RB1 mutations, CCNE1 amplification; FIG. 5
Source text: as §1

SK-BR-3 = assay: as above; format: cell-based; details: SK-BR-3 breast cancer cell line; TP53 mutation, c-MYC amplification; FIG. 4
Source text: as §1

HT-29 = assay: as above; format: cell-based; details: HT-29 colorectal cancer cell line; APC mutation, c-MYC amplification, BRAF and PIK3CA activation; FIG. 4
Source text: as §1

DU-145 = assay: as above; format: cell-based; details: DU-145 metastatic prostate cancer cell line; TP53 and RB1 mutations, KRAS amplification; FIG. 4
Source text: as §1

A673 = assay: as above; format: cell-based; details: A673 rhabdomyosarcoma cell line; CDKN2A/CDKN2B and BRCA1, Rad50, Rad51D alterations; FIG. 4
Source text: as §1

OVCAR-3 xenograft [2] = assay: OVCAR-3 xenograft model of HGSOC, SRA737 monotherapy (Example 2); format: in vivo; details: 100 mg/kg, 3 cycles, 5 days on and 2 days off; FIG. 6B
Source text: The OVCAR-3 tumor cell line was derived from a platinum insensitive patient and harbors an amplification of CCNE1 (encoding cyclin E) and mutation in TP53 (encoding p53), two genomic alterations described herein to contribute to Chk1 inhibitor sensitivity.

In the case of `N#Cc1cnc(Nc2cc(NCC3CNCCO3)c(C(F)(F)F)cn2)cn1` (stereo not drawn) [SRA737, 5-[[4-[[morpholin-2-yl]methylamino]-5-(trifluoromethyl)-2-pyridyl]amino]pyrazine-2-carbonitrile], the “tumor growth as compared to Olaparib” value (OVCAR-3 xenograft [1]; FIG. 7A) was “significantly reduced tumor growth”, the body weight (OVCAR-3 xenograft [1]; FIG. 7B) was “not significantly altered” and the “sensitivity to Chk1 inhibition (growth inhibition)” value (“sensitivity to Chk1 inhibition” for short) (OVCAR-5) was “demonstrated sensitivity to Chk1 inhibition”. For the same compound, the “sensitivity to Chk1 inhibition” value (OVCAR-3) was “demonstrated sensitivity to Chk1 inhibition”, the “sensitivity to Chk1 inhibition” value (SK-BR-3) was “demonstrated sensitivity to Chk1 inhibition” and the “sensitivity to Chk1 inhibition” value (HT-29) was “demonstrated sensitivity to Chk1 inhibition”. The “sensitivity to Chk1 inhibition” value (DU-145) was “demonstrated sensitivity to Chk1 inhibition”, the “sensitivity to Chk1 inhibition” value (A673) was “demonstrated sensitivity to Chk1 inhibition” and the “tolerability (body weight loss)” value (OVCAR-3 xenograft [2]) was “well tolerated as demonstrated by minimal body weight loss”.
